Results as given in paper PMC9067983, “Identification of highly selective type II kinase inhibitors with chiral peptidomimetic tails” (Journal of Enzyme Inhibition and Medicinal Chemistry, 2022).
Where a SMILES comes first, the peptide text is derived from it. [ ]: non-standard residue; d: D form. The star is where a group is joined. X1 = Cc1ccc(Nc2ncc3c(n2)N(C)C(=O)N(c2cc(C(=O)*)ccc2C)C3)cn1; Aib = CC(C)(N)C(=O)O

What was measured:
Assay in all cases: kinase selectivity profiling
Assay type in all cases: biochemical
Conditions in all cases: 10µM ATP, read-out: % inhibition (relative to DMSO)
ALK2/ACVR1 = biological target: T1, ALK2/ACVR1 (Homo sapiens, UniProt Q04771)
T1 construct: purchased Reaction Biology Corp
Description: (§1) Full panel kinase profiling and kinase IC50 measurement were performed by using Reaction Biology Corp. (San Diego, USA).

ARAF = biological target: T2, ARAF (Homo sapiens, UniProt P10398)
T2 construct: purchased Reaction Biology Corp
Description: as §1

CAMK1a = biological target: T3, CAMK1a (Homo sapiens, UniProt Q14012)
T3 construct: purchased Reaction Biology Corp
Description: as §1

CAMK2g = biological target: T4, CAMK2g (Homo sapiens, UniProt Q13555)
T4 construct: purchased Reaction Biology Corp
Description: as §1

CDK2/cyclin A = biological target: T5, CDK2/cyclin A (Homo sapiens, UniProt P24941)
T5 construct: purchased Reaction Biology Corp
Description: as §1

CDK2/cyclin E = biological target: T6, CDK2/cyclin E (Homo sapiens, UniProt P24941)
T6 construct: purchased Reaction Biology Corp
Description: as §1

CDK2/cyclin E2 = biological target: T7, CDK2/cyclin E2 (Homo sapiens, UniProt P24941)
T7 construct: purchased Reaction Biology Corp
Description: as §1

CDK3/cyclin E = biological target: T8, CDK3/cyclin E (Homo sapiens, UniProt Q00526)
T8 construct: purchased Reaction Biology Corp
Description: as §1

CDK6/cyclin D3 = biological target: T9, CDK6/cyclin D3 (Homo sapiens, UniProt Q00534)
T9 construct: purchased Reaction Biology Corp
Description: as §1

CHK2 = biological target: T10, CHK2 (Homo sapiens, UniProt O96017)
T10 construct: purchased Reaction Biology Corp
T10 sequence (O96017 whole entry): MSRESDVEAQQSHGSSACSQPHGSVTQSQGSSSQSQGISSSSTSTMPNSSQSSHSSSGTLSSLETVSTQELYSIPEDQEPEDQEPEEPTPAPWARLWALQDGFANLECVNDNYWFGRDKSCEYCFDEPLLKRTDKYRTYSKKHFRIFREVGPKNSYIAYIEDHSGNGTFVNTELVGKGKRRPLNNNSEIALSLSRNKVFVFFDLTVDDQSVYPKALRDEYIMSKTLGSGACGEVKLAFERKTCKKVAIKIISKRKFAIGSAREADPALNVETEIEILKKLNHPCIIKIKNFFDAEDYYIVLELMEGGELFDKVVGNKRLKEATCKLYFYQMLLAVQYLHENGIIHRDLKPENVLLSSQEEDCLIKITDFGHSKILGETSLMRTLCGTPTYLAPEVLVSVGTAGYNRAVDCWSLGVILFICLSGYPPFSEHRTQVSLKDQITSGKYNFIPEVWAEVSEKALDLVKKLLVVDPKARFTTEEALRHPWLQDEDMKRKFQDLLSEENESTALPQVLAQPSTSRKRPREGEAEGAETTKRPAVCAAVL
Description: as §1

DAPK1 = biological target: T11, DAPK1 (Homo sapiens, UniProt P53355)
T11 construct: purchased Reaction Biology Corp
Description: as §1

DDR1 = biological target: T12, DDR1 (Homo sapiens, UniProt Q08345)
T12 construct: purchased Reaction Biology Corp
Description: as §1

FGFR3 = biological target: T13, FGFR3 (Homo sapiens, UniProt P22607)
T13 construct: purchased Reaction Biology Corp
Description: as §1

FLT1/VEGFR1 = biological target: T14, FLT1/VEGFR1 (Homo sapiens, UniProt P17948)
T14 construct: purchased Reaction Biology Corp
Description: as §1

FLT3 = biological target: T15, FLT3 (Homo sapiens, UniProt P36888)
T15 construct: purchased Reaction Biology Corp
Description: as §1

GRK3 = biological target: T16, GRK3 (Homo sapiens, UniProt P35626)
T16 construct: purchased Reaction Biology Corp
Description: as §1

GRK7 = biological target: T17, GRK7 (Homo sapiens, UniProt Q8WTQ7)
T17 construct: purchased Reaction Biology Corp
Description: as §1

GSK3a = biological target: T18, GSK3a (Homo sapiens, UniProt P49840)
T18 construct: purchased Reaction Biology Corp
T18 sequence (P49840 whole entry): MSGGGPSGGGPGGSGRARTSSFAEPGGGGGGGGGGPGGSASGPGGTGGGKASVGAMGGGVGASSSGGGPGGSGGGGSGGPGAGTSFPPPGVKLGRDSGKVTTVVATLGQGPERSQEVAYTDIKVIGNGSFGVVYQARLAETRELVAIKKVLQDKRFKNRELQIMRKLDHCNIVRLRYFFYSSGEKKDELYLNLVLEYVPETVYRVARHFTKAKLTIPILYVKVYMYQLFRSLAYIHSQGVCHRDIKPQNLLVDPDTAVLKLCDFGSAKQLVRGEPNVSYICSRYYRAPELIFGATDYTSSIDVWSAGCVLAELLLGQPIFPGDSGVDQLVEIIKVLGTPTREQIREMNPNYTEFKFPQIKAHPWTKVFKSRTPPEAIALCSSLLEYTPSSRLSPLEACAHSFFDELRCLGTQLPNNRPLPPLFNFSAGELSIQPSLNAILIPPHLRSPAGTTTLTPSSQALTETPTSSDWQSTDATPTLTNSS
Description: as §1

IKKa/CHUK = biological target: T19, IKKa/CHUK (Homo sapiens, UniProt O15111)
T19 construct: purchased Reaction Biology Corp
Description: as §1

KSR1 = biological target: T20, KSR1 (Homo sapiens, UniProt Q8IVT5)
T20 construct: purchased Reaction Biology Corp
Description: as §1

MASTL = biological target: T21, MASTL (Homo sapiens, UniProt Q96GX5)
T21 construct: purchased Reaction Biology Corp
T21 sequence (Q96GX5 whole entry): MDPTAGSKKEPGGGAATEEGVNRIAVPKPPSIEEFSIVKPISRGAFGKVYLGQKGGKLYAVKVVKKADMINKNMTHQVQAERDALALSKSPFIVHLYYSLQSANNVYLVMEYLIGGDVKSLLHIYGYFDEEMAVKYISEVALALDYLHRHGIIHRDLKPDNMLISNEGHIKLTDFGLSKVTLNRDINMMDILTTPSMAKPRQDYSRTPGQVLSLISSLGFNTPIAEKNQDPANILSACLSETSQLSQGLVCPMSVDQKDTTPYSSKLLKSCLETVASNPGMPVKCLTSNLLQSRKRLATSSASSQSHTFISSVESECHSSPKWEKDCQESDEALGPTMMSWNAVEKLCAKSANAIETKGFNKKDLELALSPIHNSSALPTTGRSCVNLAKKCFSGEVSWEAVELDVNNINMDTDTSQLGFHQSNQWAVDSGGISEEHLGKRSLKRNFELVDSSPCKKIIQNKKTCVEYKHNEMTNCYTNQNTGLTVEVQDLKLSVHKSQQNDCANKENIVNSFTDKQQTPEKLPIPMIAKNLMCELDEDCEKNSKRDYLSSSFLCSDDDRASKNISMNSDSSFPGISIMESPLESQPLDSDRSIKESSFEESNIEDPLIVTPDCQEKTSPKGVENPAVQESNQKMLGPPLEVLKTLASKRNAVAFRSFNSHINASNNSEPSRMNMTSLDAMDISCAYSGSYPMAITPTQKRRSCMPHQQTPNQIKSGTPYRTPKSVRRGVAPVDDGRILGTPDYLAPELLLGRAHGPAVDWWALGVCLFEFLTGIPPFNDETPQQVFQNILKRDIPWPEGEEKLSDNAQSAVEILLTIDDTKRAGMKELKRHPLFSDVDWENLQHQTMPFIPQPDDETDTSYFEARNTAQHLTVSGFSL
Description: as §1

MSK1/RPS6KA5 = biological target: T22, MSK1/RPS6KA5 (Homo sapiens, UniProt O75582)
T22 construct: purchased Reaction Biology Corp
T22 sequence (O75582 whole entry): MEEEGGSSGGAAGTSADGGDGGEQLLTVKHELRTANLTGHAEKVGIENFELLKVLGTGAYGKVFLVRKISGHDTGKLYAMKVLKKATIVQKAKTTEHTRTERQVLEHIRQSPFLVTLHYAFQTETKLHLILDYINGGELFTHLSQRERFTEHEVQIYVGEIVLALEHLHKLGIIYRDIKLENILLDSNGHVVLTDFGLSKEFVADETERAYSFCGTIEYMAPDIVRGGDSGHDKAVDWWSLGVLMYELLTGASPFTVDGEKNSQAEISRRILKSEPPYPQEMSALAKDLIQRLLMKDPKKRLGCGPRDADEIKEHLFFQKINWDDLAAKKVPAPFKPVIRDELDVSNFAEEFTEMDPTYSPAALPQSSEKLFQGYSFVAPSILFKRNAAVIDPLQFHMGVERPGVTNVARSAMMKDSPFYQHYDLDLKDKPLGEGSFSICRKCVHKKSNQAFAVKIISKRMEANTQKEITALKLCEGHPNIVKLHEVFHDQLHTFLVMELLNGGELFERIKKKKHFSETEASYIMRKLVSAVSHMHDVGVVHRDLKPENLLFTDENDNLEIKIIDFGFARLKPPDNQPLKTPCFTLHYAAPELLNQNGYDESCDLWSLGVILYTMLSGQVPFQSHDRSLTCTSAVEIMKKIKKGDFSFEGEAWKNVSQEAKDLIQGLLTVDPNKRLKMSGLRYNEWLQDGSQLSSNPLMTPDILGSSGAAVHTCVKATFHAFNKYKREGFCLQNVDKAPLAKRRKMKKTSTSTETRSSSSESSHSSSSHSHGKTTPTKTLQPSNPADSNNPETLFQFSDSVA
Description: as §1

MUSK = biological target: T23, MUSK (Homo sapiens, UniProt O15146)
T23 construct: purchased Reaction Biology Corp
T23 sequence (O15146 24-869): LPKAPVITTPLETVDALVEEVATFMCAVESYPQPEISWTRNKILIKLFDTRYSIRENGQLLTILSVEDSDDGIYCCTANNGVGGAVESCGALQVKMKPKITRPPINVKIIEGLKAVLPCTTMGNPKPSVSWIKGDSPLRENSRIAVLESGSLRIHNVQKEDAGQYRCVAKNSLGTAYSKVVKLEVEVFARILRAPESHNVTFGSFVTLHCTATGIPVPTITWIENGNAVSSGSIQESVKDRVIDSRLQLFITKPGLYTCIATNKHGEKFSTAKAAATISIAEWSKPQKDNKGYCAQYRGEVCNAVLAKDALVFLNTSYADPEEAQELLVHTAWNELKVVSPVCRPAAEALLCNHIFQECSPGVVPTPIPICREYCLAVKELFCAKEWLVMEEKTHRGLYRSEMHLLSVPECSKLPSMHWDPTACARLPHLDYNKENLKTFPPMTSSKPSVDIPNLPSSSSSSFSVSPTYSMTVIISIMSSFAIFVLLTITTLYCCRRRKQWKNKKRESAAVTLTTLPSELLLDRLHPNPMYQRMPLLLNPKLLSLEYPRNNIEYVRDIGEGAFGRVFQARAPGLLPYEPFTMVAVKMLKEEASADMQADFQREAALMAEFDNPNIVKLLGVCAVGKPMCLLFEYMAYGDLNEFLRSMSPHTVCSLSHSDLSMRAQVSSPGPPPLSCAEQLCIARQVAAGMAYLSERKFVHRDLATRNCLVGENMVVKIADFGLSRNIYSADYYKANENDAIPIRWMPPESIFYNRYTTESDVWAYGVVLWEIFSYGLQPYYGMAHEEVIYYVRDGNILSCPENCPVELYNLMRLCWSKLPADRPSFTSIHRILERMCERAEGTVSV
Description: as §1

NEK3 = biological target: T24, NEK3 (Homo sapiens, UniProt P51956)
T24 construct: purchased Reaction Biology Corp
Description: as §1

NEK9 = biological target: T25, NEK9 (Homo sapiens, UniProt Q8TD19)
T25 construct: purchased Reaction Biology Corp
Description: as §1

NLK = biological target: T26, NLK (Homo sapiens, UniProt Q9UBE8)
T26 construct: purchased Reaction Biology Corp
Description: as §1

P38d/MAPK13 = biological target: T27, P38d/MAPK13 (Homo sapiens, UniProt O15264)
T27 construct: purchased Reaction Biology Corp
T27 sequence (O15264 whole entry): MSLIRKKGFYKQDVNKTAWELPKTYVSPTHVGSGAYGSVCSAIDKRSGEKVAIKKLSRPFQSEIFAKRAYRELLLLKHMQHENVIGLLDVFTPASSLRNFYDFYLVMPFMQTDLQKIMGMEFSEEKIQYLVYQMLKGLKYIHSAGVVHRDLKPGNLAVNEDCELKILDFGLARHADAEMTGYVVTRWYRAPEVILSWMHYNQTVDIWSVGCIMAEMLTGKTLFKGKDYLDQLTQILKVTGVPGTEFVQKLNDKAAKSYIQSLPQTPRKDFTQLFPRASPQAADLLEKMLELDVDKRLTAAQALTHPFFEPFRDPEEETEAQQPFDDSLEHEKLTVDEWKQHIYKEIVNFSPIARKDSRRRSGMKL
Description: as §1

PAK6 = biological target: T28, PAK6 (Homo sapiens, UniProt Q9NQU5)
T28 construct: purchased Reaction Biology Corp
T28 sequence (Q9NQU5 whole entry): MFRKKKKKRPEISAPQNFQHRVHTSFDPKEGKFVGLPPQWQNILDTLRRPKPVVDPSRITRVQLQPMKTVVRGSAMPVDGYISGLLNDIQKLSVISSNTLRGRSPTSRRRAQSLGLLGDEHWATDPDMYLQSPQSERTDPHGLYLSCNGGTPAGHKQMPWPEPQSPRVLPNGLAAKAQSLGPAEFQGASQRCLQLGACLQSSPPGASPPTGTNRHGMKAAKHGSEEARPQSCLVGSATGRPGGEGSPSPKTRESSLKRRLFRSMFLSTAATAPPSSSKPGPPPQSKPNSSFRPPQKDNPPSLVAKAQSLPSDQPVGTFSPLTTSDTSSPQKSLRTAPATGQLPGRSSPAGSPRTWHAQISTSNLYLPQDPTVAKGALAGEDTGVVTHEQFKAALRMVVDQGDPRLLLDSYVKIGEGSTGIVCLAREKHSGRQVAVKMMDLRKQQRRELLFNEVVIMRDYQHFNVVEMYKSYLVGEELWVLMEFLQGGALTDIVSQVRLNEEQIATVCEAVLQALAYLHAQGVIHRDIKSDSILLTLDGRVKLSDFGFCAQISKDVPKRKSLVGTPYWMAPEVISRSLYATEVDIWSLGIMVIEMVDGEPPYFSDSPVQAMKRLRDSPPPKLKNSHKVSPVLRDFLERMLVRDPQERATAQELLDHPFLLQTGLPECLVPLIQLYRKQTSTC
Description: as §1

PKAcg = biological target: T29, PKAcg (Homo sapiens, UniProt P22612)
T29 construct: purchased Reaction Biology Corp
T29 sequence (P22612 whole entry): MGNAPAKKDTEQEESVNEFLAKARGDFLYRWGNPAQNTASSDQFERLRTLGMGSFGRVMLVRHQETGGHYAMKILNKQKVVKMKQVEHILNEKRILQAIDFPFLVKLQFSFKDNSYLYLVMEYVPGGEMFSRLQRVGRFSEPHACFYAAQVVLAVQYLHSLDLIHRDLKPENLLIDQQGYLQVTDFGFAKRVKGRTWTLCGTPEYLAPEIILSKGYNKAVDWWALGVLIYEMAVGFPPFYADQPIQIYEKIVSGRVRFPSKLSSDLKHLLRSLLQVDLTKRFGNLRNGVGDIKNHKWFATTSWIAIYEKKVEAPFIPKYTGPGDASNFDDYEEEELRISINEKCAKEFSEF
Description: as §1

PKCd = biological target: T30, PKCd (Homo sapiens, UniProt Q05655)
T30 construct: purchased Reaction Biology Corp
Description: as §1

PKCnu/PRKD3 = biological target: T31, PKCnu/PRKD3 (Homo sapiens, UniProt O94806)
T31 construct: purchased Reaction Biology Corp
Description: as §1

SRPK1 = biological target: T32, SRPK1 (Homo sapiens, UniProt Q96SB4)
T32 construct: purchased Reaction Biology Corp
Description: as §1

SRPK2 = biological target: T33, SRPK2 (Homo sapiens, UniProt P78362)
T33 construct: purchased Reaction Biology Corp
Description: as §1

SYK = biological target: T34, SYK (Homo sapiens, UniProt P43405)
T34 construct: purchased Reaction Biology Corp
Description: as §1

TAOK3/JIK = biological target: T35, TAOK3/JIK (Homo sapiens, UniProt Q9H2K8)
T35 construct: purchased Reaction Biology Corp
Description: as §1

TESK1 = biological target: T36, TESK1 (Homo sapiens, UniProt Q15569)
T36 construct: purchased Reaction Biology Corp
Description: as §1

TLK1 = biological target: T37, TLK1 (Homo sapiens, UniProt Q9UKI8)
T37 construct: purchased Reaction Biology Corp
Description: as §1

TLK2 = biological target: T38, TLK2 (Homo sapiens, UniProt Q86UE8)
T38 construct: purchased Reaction Biology Corp
Description: as §1

TNIK = biological target: T39, TNIK (Homo sapiens, UniProt Q9UKE5)
T39 construct: purchased Reaction Biology Corp
Description: as §1

TXK = biological target: T40, TXK (Homo sapiens, UniProt P42681)
T40 construct: purchased Reaction Biology Corp
Description: as §1

TYK2 = biological target: T41, TYK2 (Homo sapiens, UniProt P29597)
T41 construct: purchased Reaction Biology Corp
Description: as §1

WNK3 = biological target: T42, WNK3 (Homo sapiens, UniProt Q9BYP7)
T42 construct: purchased Reaction Biology Corp
Description: as §1

c-Kit = biological target: T43, c-Kit (Homo sapiens, UniProt P10721)
T43 construct: purchased Reaction Biology Corp
Description: as §1

`Cc1ccc(Nc2ncc3c(n2)N(C)C(=O)N(c2cc(C(=O)N[C@H](C(=O)N4CCC[C@H]4C(=O)NC(C)(C)C(=O)N[C@@H](CC(C)C)C(=O)N(C)C)C(C)C)ccc2C)C3)cn1` [7a, (S)-N-(1-(((S)-1-(dimethylamino)-4-methyl-1-oxopentan-2-yl)amino)-2-methyl-1-oxopropan-2-yl)-1-((4-methyl-3-(1-methyl-7-((6-methylpyridin-3-yl)amino)-2-oxo-1,4-dihydropyrimido[4,5-d]pyrimidin-3(2H)-yl)benzoyl)-L-valyl)pyrrolidine-2-carboxamide] (X1-VP[Aib]L-NMe2) was tested, and the inhibition at 1 µM (ALK2/ACVR1) was 2%, the inhibition at 1 µM (ARAF) was 34% and the inhibition at 1 µM (CAMK1a) was 1%. It also gave an inhibition at 1 µM (CAMK2g) of 0%, an inhibition at 1 µM (CDK2/cyclin A) of 0% and an inhibition at 1 µM (CDK2/cyclin E) of 0%. The inhibition at 1 µM (CDK2/cyclin E2) was 0%, the inhibition at 1 µM (CDK3/cyclin E) was 0% and the inhibition at 1 µM (CDK6/cyclin D3) was 0%. For the same compound, the inhibition at 1 µM (CHK2) was 4%, the inhibition at 1 µM (DAPK1) was 0% and the inhibition at 1 µM (DDR1) was 80%. It also gave an inhibition at 1 µM (FGFR3) of 0%, an inhibition at 1 µM (FLT1/VEGFR1) of 9% and an inhibition at 1 µM (FLT3) of 18%. For the same compound, the inhibition at 1 µM (GRK3) was 0%, the inhibition at 1 µM (GRK7) was 0% and the inhibition at 1 µM (GSK3a) was 10%. For the same compound, the inhibition at 1 µM (IKKa/CHUK) was 6%, the inhibition at 1 µM (KSR1) was 2% and the inhibition at 1 µM (MASTL) was 7%. It also gave an inhibition at 1 µM (MSK1/RPS6KA5) of 0%, an inhibition at 1 µM (MUSK) of 7% and an inhibition at 1 µM (NEK3) of 0%. For the same compound, the inhibition at 1 µM (NEK9) was 8%, the inhibition at 1 µM (NLK) was 3% and the inhibition at 1 µM (P38d/MAPK13) was 0%. It also gave an inhibition at 1 µM (PAK6) of 0%, an inhibition at 1 µM (PKAcg) of 0% and an inhibition at 1 µM (PKCd) of 0%. For the same compound, the inhibition at 1 µM (PKCnu/PRKD3) was 0%, the inhibition at 1 µM (SRPK1) was 5% and the inhibition at 1 µM (SRPK2) was 0%. For the same compound, the inhibition at 1 µM (SYK) was 0%, the inhibition at 1 µM (TAOK3/JIK) was 0% and the inhibition at 1 µM (TESK1) was 0%. The inhibition at 1 µM (TLK1) was 0%, the inhibition at 1 µM (TLK2) was 0% and the inhibition at 1 µM (TNIK) was 6%. For the same compound, the inhibition at 1 µM (TXK) was 0%, the inhibition at 1 µM (TYK2) was 1% and the inhibition at 1 µM (WNK3) was 19%. The inhibition at 1 µM (c-Kit) was 27%.
